We go through 27 compounds from patent publication US11820766B2, “Monoacylglycerol lipase modulators” (Janssen Pharmaceutica NV, priority 2018, dated 2023).

Each structure is given as a SMILES string.

This test concerns the target T1, human MGL from HeLa cells (Homo sapiens, UniProt Q99685).
T1 construct: combining endogenously expressed MGL from HeLa cells with test compounds; endogenous in cells; host or cells: HeLa cells / cell homogenates
T1 sequence (Q99685 1-303): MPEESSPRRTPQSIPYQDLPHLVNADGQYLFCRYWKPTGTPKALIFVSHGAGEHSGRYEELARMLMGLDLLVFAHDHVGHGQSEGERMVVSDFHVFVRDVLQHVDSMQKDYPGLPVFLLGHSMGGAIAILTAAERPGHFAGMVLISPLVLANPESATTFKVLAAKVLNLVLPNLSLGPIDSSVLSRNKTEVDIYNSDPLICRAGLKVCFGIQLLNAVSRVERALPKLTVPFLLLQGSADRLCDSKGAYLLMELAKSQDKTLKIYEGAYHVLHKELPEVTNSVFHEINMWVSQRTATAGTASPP
As to the kind of experiment: In vitro MGL activity assay: [glycerol-1,3-3H]-oleyl glycerol cleavage by MGL from HeLa cells. The conditions noted are these: 300 nM [Glycerol-1,3-3H]-oleyl glycerol, one hour. In kind it is biochemical. From the text:
MGL is the predominant hydrolase in HeLa cells/cell homogenates.
In general, IC50 refers to the midpoint of a concentration-inhibition curve. On to `Cc1cnc2c(C(=O)N3CCc4c(nn(C)c4-c4cc(F)c(F)c(F)c4)[C@@H]3C)cnn2c1` [Example 451, [(7S)-2,7-Dimethyl-3-(3,4,5-trifluorophenyl)-5,7-dihydro-4H-pyrazolo[3,4-c]pyridin-6-yl]-(6-methylpyrazolo[1,5-a]pyrimidin-3-yl)methanone], for which the IC50 was 199 nM.
In the case of `C[C@H]1c2nn(C)c(-c3cc(F)c(F)c(F)c3)c2CCN1C(=O)c1ccc2nccn2n1` [Example 452, [(7S)-2,7-Dimethyl-3-(3,4,5-trifluorophenyl)-5,7-dihydro-4H-pyrazolo[3,4-c]pyridin-6-yl]-imidazo[1,2-b]pyridazin-6-yl-methanone], the IC50 worked out at 276 nM.
In turn, `Cc1cn2nc(C(=O)N3CCc4c(nn(C)c4-c4cc(F)c(F)c(F)c4)[C@@H]3C)ccc2n1` [Example 453, [(7S)-2,7-Dimethyl-3-(3,4,5-trifluorophenyl)-5,7-dihydro-4H-pyrazolo[3,4-c]pyridin-6-yl]-(2-methylimidazo[1,2-b]pyridazin-6-yl)methanone] gave an IC50 of 165 nM.
Consider `C[C@H]1c2nn(C)c(-c3cc(F)c(F)c(F)c3)c2CCN1C(=O)c1cnc2cccnn12` [Example 454, [(7S)-2,7-Dimethyl-3-(3,4,5-trifluorophenyl)-5,7-dihydro-4H-pyrazolo[3,4-c]pyridin-6-yl]-imidazo[1,2-b]pyridazin-3-yl-methanone], for which it took 24.9 nM to reach half-maximal inhibition (IC50).
Take `Cc1nc2cccnn2c1C(=O)N1CCc2c(nn(C)c2-c2cc(F)c(F)c(F)c2)[C@@H]1C` [Example 455, [(7S)-2,7-Dimethyl-3-(3,4,5-trifluorophenyl)-5,7-dihydro-4H-pyrazolo[3,4-c]pyridin-6-yl]-(2-methylimidazo[1,2-b]pyridazin-3-yl)methanone]: the IC50 was 23.2 nM.
To `Cc1nc2c(C)ccnn2c1C(=O)N1CCc2c(nn(C)c2-c2cc(F)c(F)c(F)c2)[C@@H]1C` [Example 456, (2,8-Dimethylimidazo[1,2-b]pyridazin-3-yl)-[(7S)-2,7-dimethyl-3-(3,4,5-trifluorophenyl)-5,7-dihydro-4H-pyrazolo[3,4-c]pyridin-6-yl]methanone] belongs 25.4 nM; to `Cc1cnn2c(C(=O)N3CCc4c(nn(C)c4-c4cc(F)c(F)c(F)c4)[C@@H]3C)c(C)nc2c1` [Example 457, (2,7-Dimethylimidazo[1,2-b]pyridazin-3-yl)-[(7S)-2,7-dimethyl-3-(3,4,5-trifluorophenyl)-5,7-dihydro-4H-pyrazolo[3,4-c]pyridin-6-yl] methanone], 39.4 nM; to `Cc1nc2ncccn2c1C(=O)N1CCc2c(nn(C)c2-c2cc(F)c(F)c(F)c2)[C@@H]1C` [Example 458, [(7S)-2,7-Dimethyl-3-(3,4,5-trifluorophenyl)-5,7-dihydro-4H-pyrazolo[3,4-c]pyridin-6-yl]-(2-methylimidazo[1,2-a]pyrimidin-3-yl)methanone], 163 nM.
`Cc1nc2c(C)ncc(C)n2c1C(=O)N1CCc2c(nn(C)c2-c2cc(F)c(F)c(F)c2)[C@@H]1C` [Example 459, [(7S)-2,7-Dimethyl-3-(3,4,5-trifluorophenyl)-5,7-dihydro-4H-pyrazolo[3,4-c]pyridin-6-yl]-(2,5,8-trimethylimidazo[1,2-a]pyrazin-3-yl)methanone] came in with an IC50 of 312 nM.
Compound `Cc1nc(C(=O)N2CCc3c(nn(C)c3-c3cc(F)c(F)c(F)c3)[C@@H]2C)c2ncccn12` [Example 460, [(7S)-2,7-Dimethyl-3-(3,4,5-trifluorophenyl)-5,7-dihydro-4H-pyrazolo[3,4-c]pyridin-6-yl]-(6-methylimidazo[1,5-a]pyrimidin-8-yl)methanone] came in with an IC50 of 522 nM.
As to `Cc1cnc2c(C(=O)N3CCc4c(nn(C)c4-c4cc(F)c(F)c(F)c4)[C@@H]3C)ncn2c1` [Example 461, [(7S)-2,7-Dimethyl-3-(3,4,5-trifluorophenyl)-5,7-dihydro-4H-pyrazolo[3,4-c]pyridin-6-yl]-(3-methylimidazo[1,5-a]pyrimidin-8-yl)methanone], the IC50 was 1010 nM.
Regarding `Cc1nc(C(=O)N2CCc3c(nn(C)c3-c3cc(F)c(F)c(F)c3)[C@@H]2C)c2cnccn12` [Example 462, [(7S)-2,7-Dimethyl-3-(3,4,5-trifluorophenyl)-5,7-dihydro-4H-pyrazolo[3,4-c]pyridin-6-yl]-(3-methylimidazo[1,5-a]pyrazin-1-yl) methanone], inhibition was half-maximal at 35.4 nM (IC50).
`C[C@H]1c2nn(C)c(-c3cc(F)c(F)c(F)c3)c2CCN1C(=O)c1nc(C(F)(F)F)n2ccncc12` [Example 463, [(7S)-2,7-Dimethyl-3-(3,4,5-trifluorophenyl)-5,7-dihydro-4H-pyrazolo[3,4-c]pyridin-6-yl]-[3-(trifluoromethyl)imidazo[1,5-a]pyrazin-1-yl]methanone] came in with an IC50 of 19.8 nM.
For the compound `Cc1c[nH]c2ncnc(C(=O)N3CCc4c(nn(C)c4-c4cc(F)c(F)c(F)c4)[C@@H]3C)c12` [Example 464, [(7S)-2,7-Dimethyl-3-(3,4,5-trifluorophenyl)-5,7-dihydro-4H-pyrazolo[3,4-c]pyridin-6-yl]-(5-methyl-7H-pyrrolo[2,3-d]pyrimidin-4-yl)methanone], the IC50 is 31.4 nM.
In the case of `Cc1cc(F)cc(-c2c3c(nn2C)[C@H](C)N(C(=O)c2ncnc4c2ccn4C)CC3)c1` [Example 465, [(7S)-3-(3-Fluoro-5-methyl-phenyl)-2,7-dimethyl-5,7-dihydro-4H-pyrazolo[3,4-c]pyridin-6-yl]-(7-methylpyrrolo[2,3-d]pyrimidin-4-yl) methanone], half-maximal inhibition (IC50) was put at 8.46 nM.
`C[C@H]1c2nn(C)c(-c3cc(F)c(F)c(F)c3)c2CCN1C(=O)c1ncnc2c1ccn2C` [Example 466, [(7S)-2,7-Dimethyl-3-(3,4,5-trifluorophenyl)-5,7-dihydro-4H-pyrazolo[3,4-c]pyridin-6-yl]-(7-methylpyrrolo[2,3-d]pyrimidin-4-yl)methanone] displayed an IC50 of 5.86 nM.
Take `Cc1cn(C)c2ncnc(C(=O)N3CCc4c(nn(C)c4-c4cc(F)c(F)c(F)c4)[C@@H]3C)c12` [Example 467, (5,7-Dimethylpyrrolo[2,3-d]pyrimidin-4-yl)-[(7S)-2,7-dimethyl-3-(3,4,5-trifluorophenyl)-5,7-dihydro-4H-pyrazolo[3,4-c]pyridin-6-yl] methanone]: the IC50 is 36.1 nM.
To `C[C@H]1c2nn(C)c(-c3cccc(C(F)(F)F)c3)c2CCN1C(=O)c1ccc2ncccc2c1` [Example 468, [(7S)-2,7-Dimethyl-3-[3-(trifluoromethyl)phenyl]-5,7-dihydro-4H-pyrazolo[3,4-c]pyridin-6-yl]-(6-quinolyl)methanone] belongs 50.7 nM; to `Cc1cc2c(C(=O)N3CCc4c(nn(C)c4-c4cc(F)c(F)c(F)c4)[C@@H]3C)ncnc2n1C` [Example 469, (6,7-Dimethylpyrrolo[2,3-d]pyrimidin-4-yl)-[(7S)-2,7-dimethyl-3-(3,4,5-trifluorophenyl)-5,7-dihydro-4H-pyrazolo[3,4-c]pyridin-6-yl]methanone], 36.4 nM; to `C[C@H]1c2nn(C)c(-c3cc(F)c(F)c(F)c3)c2CCN1C(=O)c1ncnc2nc[nH]c12` [Example 470, [(7S)-2,7-Dimethyl-3-(3,4,5-trifluorophenyl)-5,7-dihydro-4H-pyrazolo[3,4-c]pyridin-6-yl]-(7H-purin-6-yl)methanone], 3350 nM.
As to `C[C@H]1c2nn(C)c(-c3cc(F)c(F)c(F)c3)c2CCN1C(=O)c1ncnc2c1cnn2C` [Example 471, [(7S)-2,7-Dimethyl-3-(3,4,5-trifluorophenyl)-5,7-dihydro-4H-pyrazolo[3,4-c]pyridin-6-yl]-(1-methylpyrazolo[3,4-d]pyrimidin-4-yl)methanone], inhibition was half-maximal at 32.5 nM (IC50).
The compound `Cc1cc(C(=O)N2CCc3c(nn(C)c3-c3cc(F)c(F)c(F)c3)[C@@H]2C)n2ncnc2n1` [Example 472, [(7S)-2,7-Dimethyl-3-(3,4,5-trifluorophenyl)-5,7-dihydro-4H-pyrazolo[3,4-c]pyridin-6-yl]-(5-methyl-[1,2,4]triazolo[1,5-a]pyrimidin-7-yl)methanone] gave an IC50 of 1560 nM.
The figure for `Cc1cc2nccnc2cc1C(=O)N1CCc2c(nn(C)c2-c2cc(F)c(F)c(F)c2)[C@@H]1C` [Example 473, [(7S)-2,7-Dimethyl-3-(3,4,5-trifluorophenyl)-5,7-dihydro-4H-pyrazolo[3,4-c]pyridin-6-yl]-(7-methylquinoxalin-6-yl) methanone] is 30.7 nM.
The figure for `Cc1cnc2c(C(=O)N3CCc4c(nn(C)c4-c4cc(F)c(F)c(F)c4)[C@@H]3C)cccc2n1` [Example 474, [(7S)-2,7-Dimethyl-3-(3,4,5-trifluorophenyl)-5,7-dihydro-4H-pyrazolo[3,4-c]pyridin-6-yl]-(2-methylquinoxalin-5-yl)methanone] is 85.3 nM.
To `Cc1cnc2cccc(C(=O)N3CCc4c(nn(C)c4-c4cc(F)c(F)c(F)c4)[C@@H]3C)c2n1` [Example 475, [(7S)-2,7-Dimethyl-3-(3,4,5-trifluorophenyl)-5,7-dihydro-4H-pyrazolo[3,4-c]pyridin-6-yl]-(3-methylquinoxalin-5-yl)methanone] belongs 73.6 nM; to `Cc1nc2ccc(C(=O)N3CCc4c(nn(C)c4-c4cc(F)c(F)c(F)c4)[C@@H]3C)cc2nc1C` [Example 476, (2,3-Dimethylquinoxalin-6-yl)-[(7S)-2,7-dimethyl-3-(3,4,5-trifluorophenyl)-5,7-dihydro-4H-pyrazolo[3,4-c]pyridin-6-yl]methanone], 25.4 nM.
Regarding `C[C@H]1c2nn(C)c(-c3cc(F)c(F)c(F)c3)c2CCN1C(=O)c1cnc2ccccc2n1` [Example 477, [(7S)-2,7-Dimethyl-3-(3,4,5-trifluorophenyl)-5,7-dihydro-4H-pyrazolo[3,4-c]pyridin-6-yl]-quinoxalin-2-yl-methanone], it took 126 nM to reach half-maximal inhibition (IC50).
